Data: patent publication US6914045B2, “Glycopeptide antibiotics” (Wyeth Holdings Corporation, priority 2001, dated 2005)
≈ marks a conversion by molar mass, not a printed value.

Key:
Assay in all cases: in vitro antibacterial evaluation, MIC by broth dilution
Type in all cases: cell-based
Staphylococcus sp. = settings: broth dilution, 18 hours at 35° C.
How it was run: (§1)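 MIC, the lowest antibiotic concentration preventing growth, was read across 64-0.06 μg/mL with 5×10^5 CFU/mL inoculum. Method followed NCCLS M7-A2 broth dilution using Mueller-Hinton II; Gram-positive strains covered recent methicillin-, penicillin- and/or vancomycin-resistant clinical isolates.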

Enterococcus sp. = settings: broth dilution, 18 hours at 35° C.
How it was run: as §1

Streptococcus sp. = settings: broth dilution, 18 hours at 35° C.
How it was run: as §1

Escherichia coli = settings: 18 hours at 35° C.

MIC Coagulase Negative Staphylococcus (GC 4547) (Staphylococcus sp.): 2 µg/mL (≈ 1.34 µM)
MIC Coagulase Negative Staphylococcus (GC 4548) (Staphylococcus sp.): 1 µg/mL (≈ 0.672 µM)
MIC Coagulase Negative Staphylococcus (GC 4549) (Staphylococcus sp.): 2 µg/mL (≈ 1.34 µM)
MIC Coagulase Negative Staphylococcus (GC 4551) (Staphylococcus sp.): 4 µg/mL (≈ 2.69 µM)
MIC Coagulase Negative Staphylococcus (GC 6257) (Staphylococcus sp.): 2 µg/mL (≈ 1.34 µM)
MIC Staphylococcus aureus (ATCC 29213) (Staphylococcus sp.): 2 µg/mL (≈ 1.34 µM)
MIC Staphylococcus aureus (GC 1131) (Staphylococcus sp.): 2 µg/mL (≈ 1.34 µM)
MIC Staphylococcus aureus (GC 3051) (Staphylococcus sp.): 2 µg/mL (≈ 1.34 µM)
MIC Staphylococcus aureus (GC 3053) (Staphylococcus sp.): 2 µg/mL (≈ 1.34 µM)
MIC Staphylococcus aureus (GC 4541) (Staphylococcus sp.): 2 µg/mL (≈ 1.34 µM)
MIC Staphylococcus aureus (GC 4542) (Staphylococcus sp.): 2 µg/mL (≈ 1.34 µM)
MIC Staphylococcus aureus (GC 4544) (Staphylococcus sp.): 2 µg/mL (≈ 1.34 µM)
MIC Staphylococcus aureus (GC 4545) (Staphylococcus sp.): 2 µg/mL (≈ 1.34 µM)
MIC Staphylococcus aureus-SMITH (GC 4543) (Staphylococcus sp.): 2 µg/mL (≈ 1.34 µM)
MIC Staphylococcus aureus (ATCC 29213) (Staphylococcus sp.; strain ATCC 29213): 2 µg/mL (≈ 1.34 µM)
MIC Staphylococcus aureus (GC 1131) (Staphylococcus sp.; strain GC 1131): 2 µg/mL (≈ 1.34 µM)
MIC Staphylococcus aureus (GC 3051) (Staphylococcus sp.; strain GC 3051): 2 µg/mL (≈ 1.34 µM)
MIC Staphylococcus aureus (GC 3053) (Staphylococcus sp.; strain GC 3053): 2 µg/mL (≈ 1.34 µM)
MIC Staphylococcus aureus (GC 4541) (Staphylococcus sp.; strain GC 4541): 2 µg/mL (≈ 1.34 µM)
MIC Staphylococcus aureus (GC 4542) (Staphylococcus sp.; strain GC 4542): 2 µg/mL (≈ 1.34 µM)
MIC Staphylococcus aureus-SMITH (GC 4543) (Staphylococcus sp.; strain GC 4543): 2 µg/mL (≈ 1.34 µM)
MIC Staphylococcus aureus (GC 4544) (Staphylococcus sp.; strain GC 4544): 2 µg/mL (≈ 1.34 µM)
MIC Staphylococcus aureus (GC 4545) (Staphylococcus sp.; strain GC 4545): 2 µg/mL (≈ 1.34 µM)
MIC Coagulase Negative Staphylococcus (GC 4547) (Staphylococcus sp.; strain GC 4547): 2 µg/mL (≈ 1.34 µM)
MIC Coagulase Negative Staphylococcus (GC 4548) (Staphylococcus sp.; strain GC 4548): 1 µg/mL (≈ 0.672 µM)
MIC Coagulase Negative Staphylococcus (GC 4549) (Staphylococcus sp.; strain GC 4549): 2 µg/mL (≈ 1.34 µM)
MIC Coagulase Negative Staphylococcus (GC 4551) (Staphylococcus sp.; strain GC 4551): 4 µg/mL (≈ 2.69 µM)
MIC Coagulase Negative Staphylococcus (GC 6257) (Staphylococcus sp.; strain GC 6257): 2 µg/mL (≈ 1.34 µM)
MIC Enterococcus avium (GC 4558) (Enterococcus sp.): 4 µg/mL (≈ 2.69 µM)
MIC Enterococcus faecalis (ATCC 29212) (Enterococcus sp.): 4 µg/mL (≈ 2.69 µM)
MIC Enterococcus faecalis (GC 2242) (Enterococcus sp.): 4 µg/mL (≈ 2.69 µM)
MIC Enterococcus faecalis (GC 2691) (Enterococcus sp.): 4 µg/mL (≈ 2.69 µM)
MIC Enterococcus faecalis (GC 3059) (Enterococcus sp.): 2 µg/mL (≈ 1.34 µM)
MIC Enterococcus faecalis (GC 4552) (Enterococcus sp.): 4 µg/mL (≈ 2.69 µM)
MIC Enterococcus faecalis (GC 4553) (Enterococcus sp.): 4 µg/mL (≈ 2.69 µM)
MIC Enterococcus faecalis (GC 4554) (Enterococcus sp.): 4 µg/mL (≈ 2.69 µM)
MIC Enterococcus faecalis (GC 6189) (Enterococcus sp.): 2 µg/mL (≈ 1.34 µM)
MIC Enterococcus faecium (GC 2243) (Enterococcus sp.): 4 µg/mL (≈ 2.69 µM)
MIC Enterococcus faecium (GC 4556) (Enterococcus sp.): 4 µg/mL (≈ 2.69 µM)
MIC Enterococcus faecium (GC 4557) (Enterococcus sp.): 2 µg/mL (≈ 1.34 µM)
MIC Enterococcus faecalis (ATCC 29212) (Enterococcus sp.; strain ATCC 29212): 4 µg/mL (≈ 2.69 µM)
MIC Enterococcus faecium (GC 2243) (Enterococcus sp.; strain GC 2243): 4 µg/mL (≈ 2.69 µM)
MIC Enterococcus faecalis (GC 4552) (Enterococcus sp.; strain GC 4552): 4 µg/mL (≈ 2.69 µM)
MIC Enterococcus faecalis (GC 4553) (Enterococcus sp.; strain GC 4553): 4 µg/mL (≈ 2.69 µM)
MIC Enterococcus faecalis (GC 4554) (Enterococcus sp.; strain GC 4554): 4 µg/mL (≈ 2.69 µM)
MIC Enterococcus faecium (GC 4556) (Enterococcus sp.; strain GC 4556): 4 µg/mL (≈ 2.69 µM)
MIC Enterococcus faecium (GC 4557) (Enterococcus sp.; strain GC 4557): 2 µg/mL (≈ 1.34 µM)
MIC Enterococcus avium (GC 4558) (Enterococcus sp.; strain GC 4558): 4 µg/mL (≈ 2.69 µM)
MIC Enterococcus faecalis (GC 6189) (Enterococcus sp.; strain GC 6189): 2 µg/mL (≈ 1.34 µM)
MIC Enterococcus faecalis (GC 2242) (Enterococcus sp.; inoculum 5×10^5 CFU/mL, strain GC 2242): 4 µg/mL (≈ 2.69 µM)
MIC Enterococcus faecalis (GC 2691) (Enterococcus sp.; inoculum 5×10^5 CFU/mL, strain GC 2691): 4 µg/mL (≈ 2.69 µM)
MIC Enterococcus faecalis (GC 3059) (Enterococcus sp.; inoculum 5×10^5 CFU/mL, strain GC 3059): 2 µg/mL (≈ 1.34 µM)
MIC Streptococcus agalactiae (GC 4564) (Streptococcus sp.): <0.06 µg/mL
MIC Streptococcus pneumoniae (ATCC 6301) (Streptococcus sp.): <0.06 µg/mL
MIC Streptococcus pneumoniae (GC 1894) (Streptococcus sp.): <0.06 µg/mL
MIC Streptococcus pneumoniae (GC 4565) (Streptococcus sp.): <0.06 µg/mL
MIC Streptococcus pyogenes (GC 4563) (Streptococcus sp.): <0.06 µg/mL
MIC Streptococcus pneumoniae (ATCC 6301) (Streptococcus sp.; inoculum 5×10^5 CFU/mL, strain ATCC 6301): <0.06 µg/mL
MIC Streptococcus pneumoniae (GC 1894) (Streptococcus sp.; inoculum 5×10^5 CFU/mL, strain GC 1894): <0.06 µg/mL
MIC Streptococcus pyogenes (GC 4563) (Streptococcus sp.; inoculum 5×10^5 CFU/mL, strain GC 4563): <0.06 µg/mL
MIC Streptococcus agalactiae (GC 4564) (Streptococcus sp.; inoculum 5×10^5 CFU/mL, strain GC 4564): <0.06 µg/mL
MIC Streptococcus pneumoniae (GC 4565) (Streptococcus sp.; inoculum 5×10^5 CFU/mL, strain GC 4565): <0.06 µg/mL
MIC Escherichia coli (ATCC 25922) (Escherichia coli): >64 µg/mL
MIC Escherichia coli (GC 4559) (Escherichia coli): >64 µg/mL
MIC Escherichia coli (GC 4560) (Escherichia coli): 2 µg/mL (≈ 1.34 µM)
SMILES: CC(c1ccccc1)C1NC(=O)CNC(=O)C(CO)NC(=O)C(C(O)C2CNC(=N)N2C2OC(CO)C(O)C(O)C2O)NC(=O)C(C(O)C2CNC(=N)N2)NC(=O)C(Cc2ccc(OC3OC(CO)C(OC4OC(COCC=C(c5ccccc5)c5ccccc5)C(O)C(O)C4O)C(O)C3O)cc2)NC1=O (stereo not shown) [Example 241]
MIC Staphylococcus haemolyticus (GC 4546) (Staphylococcus sp.): 2 µg/mL (≈ 1.34 µM)
MIC Staphylococcus haemolyticus (GC 4546) (Staphylococcus sp.; strain GC 4546): 2 µg/mL (≈ 1.34 µM)
